# Laboratory results from patent publication US20240358692A1, “TREATMENT OF SCLERODERMA” (Aisa Pharma, Inc., priority 2023, published 2024).
# Tested on: participants with SSc-RP
# Assay: Frequency of weekly symptomatic RP attacks (patient diary), Phase 2a Part A
# Assay type: in vivo, human
# Settings: ITT Part A
# From the text: Percent change from baseline evaluation for frequency of weekly RP attacks were or will be used as the primary efficacy variable. The sponsor-developed participant-informed diary will be used to record data. Frequency of weekly RP attacks is defined as the total number of RP attacks divided by the number of days with available diary data within the last 7 days of each dosing period then multiplied by 7. Total number of RP attacks during the last 7 days of screening period divided by the number of days with available data then multiplied by 7 will be used as baseline for the analysis of all periods. The variable will be calculated as follows: […]
# Percent change from baseline evaluation for frequency of weekly RP attacks was and will be the primary efficacy endpoint. Frequency of weekly RP attacks is defined as the total number of RP attacks divided by the number of days with available diary data within the last 7 days of each dosing period then multiplied by 7. Total number of RP attacks during the last 7 days of screening period divided by the number of days with available data then multiplied by 7 will be used as baseline for the analysis of all periods.
# [1] = Pooled Cilnidipine 10 mg and Cilnidipine 10 mg + Tadalafil 5 mg, n=2, by Baseline RCS, first block (RCS <5.0)
# [2] = Pooled Cilnidipine 10 mg and Cilnidipine 10 mg + Tadalafil 5 mg, n=3
# [3] = Pooled Cilnidipine 10 mg and Cilnidipine 10 mg + Tadalafil 5 mg, n=3, Excluding Outliers
# [4] = Pooled Cilnidipine 10 mg and Cilnidipine 10 mg + Tadalafil 5 mg, n=1, excluding outliers, second Baseline RCS subgroup, last 7 days of dosing
# [5] = Pooled Cilnidipine 10 mg and Cilnidipine 10 mg + Tadalafil 5 mg, n=2, excluding outliers, first Baseline RCS subgroup, last 7 days of dosing
# [6] = Pooled Cilnidipine 20 mg and Cilnidipine 20 mg + Tadalafil 5 mg, n=1, by Baseline RCS, second block (RCS >5.0)
# [7] = Pooled Cilnidipine 20 mg and Cilnidipine 20 mg + Tadalafil 5 mg, n=3, by Baseline RCS, first block (RCS <5.0)
# [8] = Pooled Cilnidipine 20 mg and Cilnidipine 20 mg + Tadalafil 5 mg, n=4
# [9] = Pooled Cilnidipine 20 mg and Cilnidipine 20 mg + Tadalafil 5 mg, n=4, Excluding Outliers
# [10] = Pooled Cilnidipine 20 mg and Cilnidipine 20 mg + Tadalafil 5 mg, n=1, excluding outliers, second Baseline RCS subgroup, last 7 days of dosing
# [11] = Pooled Cilnidipine 20 mg and Cilnidipine 20 mg + Tadalafil 5 mg, n=3, excluding outliers, first Baseline RCS subgroup, last 7 days of dosing
# [12] = Pooled Cilnidipine (10 or 20 mg), n=3
# [13] = Pooled Cilnidipine (10 or 20 mg), n=3, Excluding Outliers
# [14] = Pooled Cilnidipine (10 or 20 mg), n=3, by Baseline RCS, first block (RCS <5.0)
# [15] = Pooled Cilnidipine arms, n=3, excluding outliers, first Baseline RCS subgroup, last 7 days of dosing
# [16] = cilnidipine 10 mg daily, n=1, excluding outliers, first Baseline RCS subgroup, last 7 days of dosing
# [17] = cilnidipine 20 mg daily, n=2, excluding outliers, first Baseline RCS subgroup, last 7 days of dosing
structure (smiles),measurement,setting,value
COCCOC(=O)C1=C(C)NC(C)=C(C(=O)OC/C=C/c2ccccc2)C1c1cccc([N+](=O)[O-])c1 (stereo not drawn) [Cilnidipine],"Weekly Symptomatic RP Attacks Change from Baseline, Mean",[1],−5.50
same,"Weekly Symptomatic RP Attacks Change from Baseline, Median",[1],−5.50
same,"Weekly Symptomatic RP Attacks Percent Change from Baseline, Mean",[1],−38.89%
same,"Weekly Symptomatic RP Attacks Percent Change from Baseline, Median",[1],−38.89%
same,"Weekly Symptomatic RP Attacks, Mean",[1],9.50
same,"Weekly Symptomatic RP Attacks, Median",[1],9.50
same,"Weekly Symptomatic RP Attacks Change from Baseline, Mean",[2],−4.67
same,"Weekly Symptomatic RP Attacks Change from Baseline, Median",[2],−4.00
same,"Weekly Symptomatic RP Attacks Percent Change from Baseline, Mean",[2],−40.21%
same,"Weekly Symptomatic RP Attacks Percent Change from Baseline, Median",[2],−42.86%
same,"Weekly Symptomatic RP Attacks, Mean",[2],7.67
same,"Weekly Symptomatic RP Attacks, Median",[2],5.00
same,"Weekly Symptomatic RP Attacks Change from Baseline, Mean",[3],−4.67
same,"Weekly Symptomatic RP Attacks Change from Baseline, Median",[3],−4.00
same,"Weekly Symptomatic RP Attacks Percent Change from Baseline, Mean",[3],−40.21%
same,"Weekly Symptomatic RP Attacks Percent Change from Baseline, Median",[3],−42.86%
same,"Weekly Symptomatic RP Attacks, Mean",[3],7.67
same,"Weekly Symptomatic RP Attacks, Median",[3],5.00
same,"Weekly Symptomatic RP Attacks Change from Baseline, Mean",[4],−3.00
same,"Weekly Symptomatic RP Attacks Change from Baseline, Median",[4],−3.00
same,"Weekly Symptomatic RP Attacks Percent Change from Baseline, Mean",[4],−42.86%
same,"Weekly Symptomatic RP Attacks Percent Change from Baseline, Median",[4],−42.86%
same,"Weekly Symptomatic RP Attacks, Mean",[4],4.00
same,"Weekly Symptomatic RP Attacks, Median",[4],4.00
same,"Weekly Symptomatic RP Attacks Change from Baseline, Mean",[5],−5.50
same,"Weekly Symptomatic RP Attacks Change from Baseline, Median",[5],−5.50
same,"Weekly Symptomatic RP Attacks Percent Change from Baseline, Mean",[5],−38.89%
same,"Weekly Symptomatic RP Attacks Percent Change from Baseline, Median",[5],−38.89%
same,"Weekly Symptomatic RP Attacks, Mean",[5],9.50
same,"Weekly Symptomatic RP Attacks, Median",[5],9.50
same,"Weekly Symptomatic RP Attacks Change from Baseline, Mean",[6],−0.50
same,"Weekly Symptomatic RP Attacks Change from Baseline, Median",[6],−0.50
same,"Weekly Symptomatic RP Attacks Percent Change from Baseline, Mean",[6],−4.76%
same,"Weekly Symptomatic RP Attacks Percent Change from Baseline, Median",[6],−4.76%
same,"Weekly Symptomatic RP Attacks, Mean",[6],10.00
same,"Weekly Symptomatic RP Attacks, Median",[6],10.00
same,"Weekly Symptomatic RP Attacks Change from Baseline, Mean",[7],−4.67
same,"Weekly Symptomatic RP Attacks Change from Baseline, Median",[7],−5.00
same,"Weekly Symptomatic RP Attacks Percent Change from Baseline, Mean",[7],−31.75%
same,"Weekly Symptomatic RP Attacks Percent Change from Baseline, Median",[7],−28.57%
same,"Weekly Symptomatic RP Attacks, Mean",[7],9.67
same,"Weekly Symptomatic RP Attacks, Median",[7],11.00
same,"Weekly Symptomatic RP Attacks Change from Baseline, Mean",[8],−3.63
same,"Weekly Symptomatic RP Attacks Change from Baseline, Median",[8],−3.50
same,"Weekly Symptomatic RP Attacks Percent Change from Baseline, Mean",[8],−25.00%
same,"Weekly Symptomatic RP Attacks Percent Change from Baseline, Median",[8],−28.17%
same,"Weekly Symptomatic RP Attacks, Mean",[8],9.75
same,"Weekly Symptomatic RP Attacks, Median",[8],10.50
same,"Weekly Symptomatic RP Attacks Change from Baseline, Mean",[9],−3.63
same,"Weekly Symptomatic RP Attacks Change from Baseline, Median",[9],−3.50
same,"Weekly Symptomatic RP Attacks Percent Change from Baseline, Mean",[9],−25.00%
same,"Weekly Symptomatic RP Attacks Percent Change from Baseline, Median",[9],−28.17%
same,"Weekly Symptomatic RP Attacks, Mean",[9],9.75
same,"Weekly Symptomatic RP Attacks, Median",[9],10.50
same,"Weekly Symptomatic RP Attacks Change from Baseline, Mean",[10],−0.50
same,"Weekly Symptomatic RP Attacks Change from Baseline, Median",[10],−0.50
same,"Weekly Symptomatic RP Attacks Percent Change from Baseline, Mean",[10],−4.76%
same,"Weekly Symptomatic RP Attacks Percent Change from Baseline, Median",[10],−4.76%
same,"Weekly Symptomatic RP Attacks, Mean",[10],10.00
same,"Weekly Symptomatic RP Attacks, Median",[10],10.00
same,"Weekly Symptomatic RP Attacks Change from Baseline, Mean",[11],−4.67
same,"Weekly Symptomatic RP Attacks Change from Baseline, Median",[11],−5.00
same,"Weekly Symptomatic RP Attacks Percent Change from Baseline, Mean",[11],−31.75%
same,"Weekly Symptomatic RP Attacks Percent Change from Baseline, Median",[11],−28.57%
same,"Weekly Symptomatic RP Attacks, Mean",[11],9.67
same,"Weekly Symptomatic RP Attacks, Median",[11],11.00
same,"Weekly Symptomatic RP Attacks Change from Baseline, Mean",[12],−5.33
same,"Weekly Symptomatic RP Attacks Change from Baseline, Median",[12],−7.00
same,"Weekly Symptomatic RP Attacks Percent Change from Baseline, Mean",[12],−33.60%
same,"Weekly Symptomatic RP Attacks Percent Change from Baseline, Median",[12],−33.33%
same,"Weekly Symptomatic RP Attacks, Mean",[12],10.00
same,"Weekly Symptomatic RP Attacks, Median",[12],11.00
same,"Weekly Symptomatic RP Attacks Change from Baseline, Mean",[13],−5.33
same,"Weekly Symptomatic RP Attacks Change from Baseline, Median",[13],−7.00
same,"Weekly Symptomatic RP Attacks Percent Change from Baseline, Mean",[13],−33.60%
same,"Weekly Symptomatic RP Attacks Percent Change from Baseline, Median",[13],−33.33%
same,"Weekly Symptomatic RP Attacks, Mean",[13],10.00
same,"Weekly Symptomatic RP Attacks, Median",[13],11.00
same,"Weekly Symptomatic RP Attacks Change from Baseline, Mean",[14],−5.33
same,"Weekly Symptomatic RP Attacks Change from Baseline, Median",[14],−7.00
same,"Weekly Symptomatic RP Attacks Percent Change from Baseline, Mean",[14],−33.60%
same,"Weekly Symptomatic RP Attacks Percent Change from Baseline, Median",[14],−33.33%
same,"Weekly Symptomatic RP Attacks, Mean",[14],10.00
same,"Weekly Symptomatic RP Attacks, Median",[14],11.00
same,"Weekly Symptomatic RP Attacks Change from Baseline, Mean",[15],−5.33
same,"Weekly Symptomatic RP Attacks Change from Baseline, Median",[15],−7.00
same,"Weekly Symptomatic RP Attacks Percent Change from Baseline, Mean",[15],−33.60%
same,"Weekly Symptomatic RP Attacks Percent Change from Baseline, Median",[15],−33.33%
same,"Weekly Symptomatic RP Attacks, Mean",[15],10.00
same,"Weekly Symptomatic RP Attacks, Median",[15],11.00
same,"Weekly Symptomatic RP Attacks Change from Baseline, Mean",[16],−7.00
same,"Weekly Symptomatic RP Attacks Change from Baseline, Median",[16],−7.00
same,"Weekly Symptomatic RP Attacks Percent Change from Baseline, Mean",[16],−33.33%
same,"Weekly Symptomatic RP Attacks Percent Change from Baseline, Median",[16],−33.33%
same,"Weekly Symptomatic RP Attacks, Mean",[16],14.00
same,"Weekly Symptomatic RP Attacks, Median",[16],14.00
same,"Weekly Symptomatic RP Attacks Change from Baseline, Mean",[17],−4.50
same,"Weekly Symptomatic RP Attacks Change from Baseline, Median",[17],−4.50
same,"Weekly Symptomatic RP Attacks Percent Change from Baseline, Mean",[17],−33.73%
same,"Weekly Symptomatic RP Attacks Percent Change from Baseline, Median",[17],−33.73%
same,"Weekly Symptomatic RP Attacks, Mean",[17],8.00
same,"Weekly Symptomatic RP Attacks, Median",[17],8.00
